Source: US20050113274A1, “Hydrocarbyl aminohydrocarbonoates and aminohydrocarbonol hydrocarbonoates as antimicrobial and antiviral agents” (priority 2003, published 2005)

How the values were obtained:
[1] = tested on: microorganism growth; experiment: Visual microorganism growth testing of formulations; format: cell-based; conditions: room temperature and refrigerator conditions; test period of 2 months
Procedure: Additional formulations (such as in the examples that follow) were prepared and submitted to visual microorganism growth testing at room temperature (RT) and refrigerator conditions. The examples given below constitute some typical samples of various formulations prepared and tested.

[2] = tested on: stratum corneum proteins; conditions: FIG. 1; compared with control; cited from earlier work
[3] = tested on: Escherichia coli; experiment: USP Antimicrobial Preservatives Effectiveness Test, E. coli; format: cell-based; conditions: DDAIP formulation of Example 1
Excerpt: (§1) Thus, in the presence of Pseudomonas aeruginosa, […], Candida albicans, Streptococcus aureus, and Escherichia coli after 7 days of study less than 10 cfu/ml remained, with Aspergillus niger this value was observed after 21 days of study.

[4] = tested on: Aspergillus niger; experiment: USP Antimicrobial Preservatives Effectiveness Test, A. niger; format: cell-based; conditions: DDAIP formulation of Example 1
Excerpt: as §1

[5] = tested on: Streptococcus aureus; experiment: USP Antimicrobial Preservatives Effectiveness Test, S. aureus; format: cell-based; conditions: DDAIP formulation of Example 1
Excerpt: as §1

[6] = tested on: Pseudomonas aeruginosa; experiment: USP Antimicrobial Preservatives Effectiveness Test, P. aeruginosa; format: cell-based; conditions: DDAIP formulation of Example 1
Excerpt: as §1

[7] = tested on: Candida albicans; experiment: USP Antimicrobial Preservatives Effectiveness Test, C. albicans; format: cell-based; conditions: DDAIP formulation of Example 1
Excerpt: as §1

SMILES: CCCCCCCCCCCCOC(=O)C(C)N(C)C (stereo not shown) [DDAIP, Dodecyl 2-(N,N-dimethylamino)propionate]
- visual microorganism growth [1]: no growth was observed
- number of free thiol groups of stratum corneum proteins (effect on protein domain) [2]: effect on the protein domain
- E. coli (cfu/ml), 7 days ([3]; 7 days): <1 cfu/ml
- E. coli (cfu/ml), 14 days ([3]; 14 days): <1 cfu/ml
- E. coli (cfu/ml), Time Zero ([3]; day zero count): 5.70E+05 cfu/ml
- A. niger (cfu/ml), 7 days ([4]; 7 days): 1.40E+03 cfu/ml
- A. niger (cfu/ml), 14 days ([4]; 14 days): 3.00E+02 cfu/ml
- A. niger (cfu/ml), Time Zero ([4]; day zero count): 3.05E+05 cfu/ml
- S. aureus (cfu/ml), 7 days ([5]; 7 days): <10 cfu/ml
- S. aureus (cfu/ml), 14 days ([5]; 14 days): <10 cfu/ml
- S. aureus (cfu/ml), 21 days ([5]; 21 days): <10 cfu/ml
- S. aureus (cfu/ml), 28 days ([5]; 28 days): <10 cfu/ml
- S. aureus (cfu/ml), Time Zero ([5]; day zero count): 6.90E+05 cfu/ml
- P. aeruginosa (cfu/ml), 7 days ([6]; 7 days): <10 cfu/ml
- P. aeruginosa (cfu/ml), 14 days ([6]; 14 days): <10 cfu/ml
- P. aeruginosa (cfu/ml), 21 days ([6]; 21 days): <10 cfu/ml
- P. aeruginosa (cfu/ml), 28 days ([6]; 28 days): <10 cfu/ml
- P. aeruginosa (cfu/ml), Time Zero ([6]; day zero count): 3.55E+05 cfu/ml
- C. albicans (cfu/ml), 7 days ([7]; 7 days): <10 cfu/ml
- C. albicans (cfu/ml), 14 days ([7]; 14 days): <10 cfu/ml
- C. albicans (cfu/ml), Time Zero ([7]; day zero count): 3.45E+05 cfu/ml

SMILES: CCO [ethanol, reference compound]
- number of free thiol groups of stratum corneum proteins (effect on protein domain) [2]: affects protein domain
